Results reported in paper PMC5829242, “Chiral DOTA chelators as an improved platform for biomedical imaging and therapy applications” (Nature Communications, 2018).

What was measured:
[1] = 17O NMR water exchange (residence time of water co-ligand); assay type: physicochemical; details: 17O NMR at 11.7T; for τM^310K, mean residence time of the water co-ligand at 310 K: q = 1 assumed
Protocol: (§1) Relaxivity measurements were performed on a Bruker mq60 Minispec at 1.41T and 37 °C. Longitudinal (T1) relaxation times were measured using an inversion recovery experiment with 10 inversion times of duration ranging between 0.05 × T1 and 5 × T1. Transverse (T2) relaxation times were measured using a CPMG pulse sequence. Relaxivity (r1, r2) was determined from the slope of a plot of 1/T1,2 vs [Gd] for at least 4 concentrations of Gd(III) (data shown in Supplementary Figs. 93–110). The T2 relaxation times of ^17O at 11.7T were estimated from the full-width at half-height of the H2^17O resonance at temperatures ranging from 278 to 368K. Reduced relaxation rates (1/T2r) were calculated by taking the difference of 1/T2 measured in the presence and absence of Gd(III) and dividing by the mole fraction of coordinated water molecules, assuming q = 1. […] However, at the high magnetic field used, and because of the very-fast water exchange rates observed, there was negligible contribution of T1e, and the data were refit to a two-parameter model using the water exchange rate at 310K (τM) and enthalpy of activation for water exchange (ΔH^‡) as adjustable parameters. The Gd-O hyperfine coupling constant, A/ħ, was assumed to be -3.8 × 10^6 rad s^−1 [57], [58]. Samples were prepared in neat H2O adjusted and enriched with a small amount of H2^17O.

[2] = Relaxivity measurements at 1.41T and 37 °C; assay type: physicochemical
Protocol: as §1

[3] = In vivo dynamic T1-weighted MR imaging at 4.7T; parameters: species or system C57/Bl6 mice; details: 0.1 mmol per kg i.v., 4.7 tesla, n = 1
Protocol: Dynamic T1-weighted MR imaging at 4.7 tesla was performed with C57/Bl6 mice before, during, and after 0.1 mmol per kg injection of each compound (Fig. 7).
(§2) Imaging was performed at 4.7T using a small-bore animal scanner (Bruker Biospec). Pilot dynamic MRI studies were performed with [GdL1]^−, [GdL2A]^−, [GdL2B]^− and [GdL5]^−; n = 1 per compound. Six to eight weeks male C57/Bl6 mice were anaesthetised with isoflurane (1%–2%) and placed in a specially designed cradle with body temperature maintained at 37 °C. The tail vein was catherised for intravenous delivery of the contrast agent while the animal was positioned in the scanner. A pneumatic pillow was placed on the mouse to enable respiratory monitoring (SA Instruments), and the animal’s body temperature was maintained with warm air. The imaging protocol utilised a three-dimensional fast low angle shot (3D FLASH) with a […] flip angle, 9.00 ms repetition rate, 2.39 ms echo time, 4.8 cm × 2.4 cm × 2.4 cm field of view with a 0.3 mm isotropic resolution. Images were acquired with either 2 or 8 averages giving an acquisition time of 2 min or 8 min, respectively. Baseline images were acquired with both 2 and 8 averages, then the Gd complex (0.1 mmol per kg) was injected intravenously and the sequence with 2 averages was repeated for a period of 10 min to monitor blood clearance. At 10, 30, 45, 60, 75 and 90 min after probe injection, the sequence with 8 averages was repeated to monitor the clearance of contrast from the liver and kidneys. After imaging was performed, the mouse was removed from the scanner and euthanized at 2 h post injection and the tissues were harvested for Gd quantification by ICP-MS.

[4] = Ex vivo biodistribution 2 h post injection after MRI study (ICP-MS); assay type: in vivo, C57/Bl6 mice; details: 0.1 mmol per kg i.v.
Protocol: (§3) Gd concentrations were determined using an Agilent 8800-QQQ ICP-MS system. All samples were diluted with 0.1% Triton X-100 in 5% nitric acid. Lutetium internal standard was steadily introduced to the ICP-MS from an external source during the analysis. A linear calibration curve for each metal ranging from 0.1 ppb to 200 ppb was generated daily for the quantification.
as §2

[5] = Kinetic stability of Gd complexes monitored by RP-HPLC (acid, base, DTPA, DOTA, ZnCl2); assay type: physicochemical; details: for stability and interconversion: one equivalent of DOTA ligand in 1N HCl
Text: The kinetic stability of GBCAs, which reflects the dissociation of the Gd ions from its chelate is used to predict the stability in vivo[10]. The proton-assisted dissociation and direct attack of the endogenous ions are regarded as two main pathways that induced the dissociation of the chelates. The inertness of our Gd(III) complexes was maintained up to 7 days after addition of 1000 equivalents of a competitive ligand, DTPA (Supplementary Fig. 7 & 8). […] The harshest condition tried was setting the complexes of [GdL2A]^−, [GdL2B]^− and [GdDOTA]^− in 1N HCl (Fig. 5, Supplementary Figs. 13 - 15).
Fig. […] Error bars for [GdL2A]^- and [GdL2B]^- refer to the standard error of mean (S.E.M.), statistical data fitting analysis (n = 3; s.e.m.)

[6] = Gd complexes biodistribution studies (ICP-MS); assay type: in vivo, BALB/c mice; details: 0.025 mmol/kg i.v., 5-360 min post injection
Text: Most commercially available Gd(III)-based MRI contrast agents are excreted rapidly and exclusively through the renal pathway. One of the few exceptions is an acyclic compound, Gd-EOB-DTPA, which has a mixed clearance (50% renal, 50% biliary) and is used for imaging of the liver and biliary system. Gd-BOPTA and MS-325 have predominantly renal elimination with <10% elimination through the biliary system. […] We illustrated with our studies that there is a significant variation in the biodistribution profiles despite the small structural differences of the chiral substituents (Supplementary Fig. 20). Gd biodistribution in BALB/c mice was measured by ICP-MS at 5, 15, 30, 60, 180 and 360 min following injection. […] Low levels of Gd(III) are present at 6 h post injection. […] The specific and unusual localisation of [GdL2]^− in the liver makes it a potential hepatobiliary-specific MRI contrast agent.
as §3
Complexes [GdL1]^−, [GdL2]^− and [GdL5]^− were prepared by dissolving in saline solution, while [GdDOTA]^− (Dotarem) was diluted in saline solution. Eight-week-old male BALB/c mice (purchased from BioLASCO, Taiwan) each weighing approximately 25 g were administered with a single dose of 0.025 mmol/kg compound ([GdL1]^−, [GdL2]^−, [GdDOTA]^− and [GdL5]^−; 3 mice per compound per time point) in a 100 μl volume via lateral tail vein injection. The mice were then euthanized, and their blood collected by cardiac puncture at each time point (5, 15, 30, 60, 180 or 360 min post injection). A control group of 4 mice was treated with saline and killed at time point 0. The liver, lung, heart, kidneys, spleen and brain were removed from the animals and weighed. Gd content in tissue and blood samples was quantified via ICP-MS analysis. All experiments were performed in accordance with the NIH Guide for the Care and Use of Laboratory Animals and approved by the Institutional Animal Care and Use Committee of Massachusetts General Hospital or by the Department of Health of the Hong Kong Government and the Animal Subjects Ethics Sub-Committee of Hong Kong Polytechnic University.

[7] = 1N HCl, room temperature, after 487 h

For `CC[C@H]1CN(CC(=O)[O-])[C@@H](CC)CN(CC(=O)[O-])[C@@H](CC)CN(CC(=O)[O-])[C@@H](CC)CN1CC(=O)[O-].[Gd+3]` [[GdL2B]^−], the “τM^310K, mean residence time of the water co-ligand at 310 K” value (“τM^310K, mean residence time” below) [1] was 1.1 ± 0.1 ns, the r1 relaxivity ([2]; 4.5% w/v HSA (1.4T)) was 4.8 mM⁻¹ s⁻¹ and the r1 relaxivity ([2]; Human Plasma (1.4T)) was 4.9 mM⁻¹ s⁻¹. For the same compound, the r1 relaxivity ([2]; Water (1.4T)) was 3.9 mM⁻¹ s⁻¹, the “MR enhancement of liver and gall bladder” value [3] was “profound enhancement of the liver and gall bladder” and the “MR signal in the kidneys over time / at 60 min post injection” value [3] was “approached baseline”. For the same compound, the “Gd concentration in gall bladder” value [4] was 1066 nmol Gd per gram tissue, the “Gd concentration in blood” value ([4]; listed as GdL2B) was 0.60 nmol Gd per gram tissue and the “Gd concentration in gall bladder” value ([4]; listed as GdL2B) was 1066.22 nmol Gd per gram tissue. The “Gd concentration in heart” value ([4]; listed as GdL2B) was 3.09 nmol Gd per gram tissue, the “Gd concentration in intestines” value ([4]; listed as GdL2B) was 47.07 nmol Gd per gram tissue and the “Gd concentration in kidney” value ([4]; listed as GdL2B) was 7.42 nmol Gd per gram tissue. For the same compound, the “Gd concentration in liver” value ([4]; listed as GdL2B) was 1.12 nmol Gd per gram tissue, the “Gd concentration in lung” value ([4]; listed as GdL2B) was 2.63 nmol Gd per gram tissue and the “Gd concentration in muscle” value ([4]; listed as GdL2B) was 5.43 nmol Gd per gram tissue. For the same compound, the “Gd concentration in spleen” value ([4]; listed as GdL2B) was 4.82 nmol Gd per gram tissue, the “Gd concentration in stomach” value ([4]; listed as GdL2B) was 1.05 nmol Gd per gram tissue and the “Gd concentration in tail” value ([4]; listed as GdL2B) was 2.64 nmol Gd per gram tissue. The decomplexation ([5]; 0.1N NaOH, over 10 days) was “negligible decomplexation”, the decomplexation [5, 7] was “only minimal decomplexation” and the decomplexation ([5]; 1N HNO3, over 10 days) was “negligible decomplexation”. For the same compound, the stability and interconversion [5] was “no interconversion was observed”.
With `C[C@H]1CN(CC(=O)[O-])[C@@H](C)CN(CC(=O)[O-])[C@@H](C)CN(CC(=O)[O-])[C@@H](C)CN1CC(=O)[O-].[Gd+3]` [[GdL1]^−] the “ΔH^‡, enthalpy change of activation of water exchange” value [1] was 3.82 ± 0.335 kcal/mol, the “τM^310K, mean residence time” value [1] was 13 ± 0.4 ns and the r1 relaxivity ([2]; 4.5% w/v HSA (1.4T)) was 4.5 mM⁻¹ s⁻¹. For the same compound, the r1 relaxivity ([2]; Human Plasma (1.4T)) was 4.6 mM⁻¹ s⁻¹, the r1 relaxivity ([2]; Water (1.4T)) was 4.1 mM⁻¹ s⁻¹ and the “MR enhancement of liver and gall bladder” value [3] was “some enhancement of the liver and gall bladder”. The “Gd concentration in blood” value [4] was 1.04 nmol Gd per gram tissue, the “Gd concentration in gall bladder” value [4] was 139.87 nmol Gd per gram tissue and the “Gd concentration in heart” value [4] was 1.68 nmol Gd per gram tissue. For the same compound, the “Gd concentration in intestines” value [4] was 7.75 nmol Gd per gram tissue, the “Gd concentration in kidney” value [4] was 16.71 nmol Gd per gram tissue and the “Gd concentration in liver” value [4] was 1.64 nmol Gd per gram tissue. The “Gd concentration in lung” value [4] was 1.81 nmol Gd per gram tissue, the “Gd concentration in muscle” value [4] was 4.29 nmol Gd per gram tissue and the “Gd concentration in spleen” value [4] was 6.63 nmol Gd per gram tissue. The “Gd concentration in stomach” value [4] was 11.35 nmol Gd per gram tissue, the “Gd concentration in tail” value [4] was 4.57 nmol Gd per gram tissue and the “Gd biodistribution / elimination profile” value [6] was “near equal renal and hepatic clearance”.
For `CC[C@H]1CN(CC(=O)[O-])[C@@H](CC)CN(CC(=O)[O-])[C@@H](CC)CN(CC(=O)[O-])[C@@H](CC)CN1CC(=O)[O-].[Gd+3]` [[GdL2A]^−], the “ΔH^‡, enthalpy change of activation of water exchange” value [1] was 10.3 ± 0.478 kcal/mol, the “τM^310K, mean residence time” value [1] was 6.6 ± 0.4 ns and the r1 relaxivity ([2]; 4.5% w/v HSA (1.4T)) was 4.7 mM⁻¹ s⁻¹. The r1 relaxivity ([2]; Human Plasma (1.4T)) was 4.7 mM⁻¹ s⁻¹, the r1 relaxivity ([2]; Water (1.4T)) was 4.2 mM⁻¹ s⁻¹ and the “MR enhancement of liver and gall bladder” value [3] was “very similar behaviour to [GdL2B]^−”. For the same compound, the “Gd concentration in gall bladder” value [4] was 854 nmol Gd per gram tissue, the “Gd concentration in blood” value ([4]; listed as GdL2A) was 0.49 nmol Gd per gram tissue and the “Gd concentration in gall bladder” value ([4]; listed as GdL2A) was 854.21 nmol Gd per gram tissue. For the same compound, the “Gd concentration in heart” value ([4]; listed as GdL2A) was 1.82 nmol Gd per gram tissue, the “Gd concentration in intestines” value ([4]; listed as GdL2A) was 0.05 nmol Gd per gram tissue and the “Gd concentration in kidney” value ([4]; listed as GdL2A) was 20.92 nmol Gd per gram tissue. For the same compound, the “Gd concentration in liver” value ([4]; listed as GdL2A) was 10.47 nmol Gd per gram tissue, the “Gd concentration in lung” value ([4]; listed as GdL2A) was 3.61 nmol Gd per gram tissue and the “Gd concentration in muscle” value ([4]; listed as GdL2A) was 5.18 nmol Gd per gram tissue. For the same compound, the “Gd concentration in spleen” value ([4]; listed as GdL2A) was 4.72 nmol Gd per gram tissue, the “Gd concentration in stomach” value ([4]; listed as GdL2A) was 3.14 nmol Gd per gram tissue and the “Gd concentration in tail” value ([4]; listed as GdL2A) was 2.13 nmol Gd per gram tissue. For the same compound, the decomplexation ([5]; 0.1N NaOH, over 10 days) was “negligible decomplexation”, the decomplexation [5, 7] was “almost no decomplexation” and the decomplexation ([5]; 1N HNO3, over 10 days) was “negligible decomplexation”. For the same compound, the decomplexation ([5]; 100 equivalents of zinc chloride at 50 °C, ~100 h) was “no obvious decomplexation” and the stability and interconversion [5] was “no interconversion was observed”.
